Source: patent publication EP2135864A1, “5-(4-methanesulfonyl-phenyl)-thiazole derivatives for the treatment of acute and chronic inflammatory diseases” (FAES FARMA, S.A., priority 2008, dated 2009)

Legend:
Type in all cases: cell-based, human
IL-10 [1] = assay: IL-10 production by PBMC from patients with rheumatoid arthritis, CBA; conditions: 24 hours, mean ± standard error, n=8
Method: (§1) CBA protocol was followed according to the manufacturer's instructions. The election of microparticles was performed following the summary of Figure 1.
(§2) The acquisition on samples was performed with the BD FACS Array Bioanalyser System (FACSArray, Becton Dickinson, San José, CA, USA) and the analysis of the results was completed with the software FCAP Array (Becton Dickinson) in a PC computer.
(§3) Briefly, the experimental protocol consisted of a plate pre-washing out with Wash Buffer. After decantation, the mixture of capture microparticles was re-suspended in the vortex. Standards and samples were added in the adequate dilution. After permanent stirring incubation during 1 h, the PE detection reagent was added and incubated again during 2h at room temperature. After a washing-out, the acquisition was performed in the flow cytometer. Table 3. -Kit CBA Human Soluble Protein Multiplex Flex Set System.
(§4) On the other hand, PBMC (5 x 10^4 cells per well) from 8 patients with rheumatoid arthritis were cultured in duplicate in 200 µl of complete medium supplemented with the highest solvent concentration (10^-6 M), and 10^-6 M, 10^-7 M and 10^-8 M of compound 12 in the presence and absence of either LPS (10 µg/ml) or anti-CD3 (12.5 ng/ml), + anti-CD28 (1/3x10^5), during 24 hours. Culture supernatants were frozen at -20°C and IL-10 concentration was assayed by BD FACS Array Bioanalyser by using CBA Flex Set, specific to determine IL-10 concentration, following the manufacturer instructions.

[2] = tested on: PBMC from healthy volunteers; assay: Proliferative response of PBMC, 3[H]-Thymidine incorporation; conditions: n=8; 4 days culture; absence or presence of PHA 10 µg/ml, PHA 2 µg/ml plus IL-2 (25 IU/ml), or anti-CD3 (12.5 ng/ml) + anti-CD28 (1:320.000)
Method: Faced against a mitogen stimulation, lymphocytes suffer a blastogenesis and cellular differentiation process. The method used to quantify the cellular proliferation was the assay of the incorporation of ^3[H]-Thymidine to the DNA de novo synthesized, and the emission of betha-radiation from the cellular cultures dried extracts (to which the tritiated base was added) was detected before its ending and harvesting. In the different experiments performed to study the proliferation, the purified cellular preparations were incubated in 96 microwells plain bottom plates at concentrations of 5 x 10^4 cells/well (200 µl final volume), in the presence of different concentrations of various mitogens with triplicate repetitions and along 4 days of culture.
The response to a specific stimuli depended on the density and cell type studied, as well as of the culture time and of the mitogenic agent concentration. […]
PBMC was cultured during 4 days (50.000 cells per well) at 37°C and 5 % CO2 atmosphere (Cell incubator HERA Cell 150, Thermoscientific, Thermoelectron, 63505 Lagenselbold, GE) in complete culture medium. […] The DNA-incorporated radioactive was quantified by using a betha particles counter Wallac Oy.

IL-10 [3] = assay: IL-10 production by PBMC from healthy volunteers, CBA; conditions: 24 hours, mean ± standard error, n=13
Method: as §1, §2, §3
The effects of compound 12 on IL-10 production by the PBMC from healthy volunteers and patients with rheumatoid arthritis were investigated in the presence and absence of LPS stimulation and with the combination of monoclonal antibodies anti-CD3 and anti-CD28. PBMC (5 x 10^4 cells per well) from 13 healthy volunteers were cultured in duplicate 200 µl of complete medium supplemented with the highest solvent concentration (10^-6 M), and 10^-6 M, 10^-7 M and 10^-8 M of compound 12, in the presence and absence of either LPS (10 µg/ml) or anti-CD3 (12.5 ng/ml), + anti-CD28 (1/3x10^5), during 24 hours.
as §4

Cc1nc(OC2CCCC2)c(-c2ccc(S(C)(=O)=O)cc2)s1 [compound 12, 4-cyclopentyloxy-5-(4-methylsulfonyl-phenyl)-2-methylthiazole]
IL-10 production in PMBC from patients with rheumatoid arthritis (IL-10 [1]; LPS (10µg/ml), 10^-6 M, vehicle 2388.64±300.00, p 0.069): 2787.12±416.91 (0.069) pg/mL
IL-10 production in PMBC from patients with rheumatoid arthritis (IL-10 [1]; LPS (10µg/ml), 10^-7 M, vehicle 2388.64±300.00, p 0.327): 2597.85±513.19 (0.327) pg/mL
IL-10 production in PMBC from patients with rheumatoid arthritis (IL-10 [1]; LPS (10µg/ml), 10^-8 M, vehicle 2388.64±300.00, p 0.025): 3000.00±400.00 (0.025) pg/mL
IL-10 production in PMBC from patients with rheumatoid arthritis (IL-10 [1]; anti-CD3 (12.5 ng/ml) + anti-CD28 (1/3x10^5), 10^-6 M, vehicle 836.39±189.09, p 0.484): 976.96±187.99 (0.484) pg/mL
IL-10 production in PMBC from patients with rheumatoid arthritis (IL-10 [1]; anti-CD3 (12.5 ng/ml) + anti-CD28 (1/3x10^5), 10^-7 M, vehicle 836.39±189.09, p 1.000): 805.41±141.23 (1.000) pg/mL
IL-10 production in PMBC from patients with rheumatoid arthritis (IL-10 [1]; anti-CD3 (12.5 ng/ml) + anti-CD28 (1/3x10^5), 10^-8 M, vehicle 836.39±189.09, p 0.674): 872.06±150.87 (0.674) pg/mL
IL-10 production in PMBC from patients with rheumatoid arthritis (IL-10 [1]; medium, 10^-6 M, vehicle 452.69±107.47, p 0.674): 682.50±113.65 (0.674) pg/mL
IL-10 production in PMBC from patients with rheumatoid arthritis (IL-10 [1]; medium, 10^-7 M, vehicle 452.69±107.47, p 0.401): 798.92±144.46 (0.401) pg/mL
IL-10 production in PMBC from patients with rheumatoid arthritis (IL-10 [1]; medium, 10^-8 M, vehicle 452.69±107.47, p 0.263): 468.14±65.80 (0.263) pg/mL
proliferative response of the PBMC from healthy volunteers [2]: did not significantly modify
IL-10 production by PMBC from healthy volunteers (IL-10 [3]; LPS (10µg/ml), 10^-6 M, vehicle 2342.20±384.02, p 0.507): 2420.68±455.50 (0.507) pg/mL
IL-10 production by PMBC from healthy volunteers (IL-10 [3]; LPS (10µg/ml), 10^-7 M, vehicle 2342.20±384.02, p 0.507): 2392.99±427.86 (0.507) pg/mL
IL-10 production by PMBC from healthy volunteers (IL-10 [3]; LPS (10µg/ml), 10^-8 M, vehicle 2342.20±384.02, p 0.701): 2389.63±366.01 (0.701) pg/mL
IL-10 production by PMBC from healthy volunteers (IL-10 [3]; anti-CD3 (12.5 ng/ml) + anti-CD28 (1/3x10^5), 10^-6 M, vehicle 1042.64±162.36, p 0.507): 1239.47±251.24 (0.507) pg/mL
IL-10 production by PMBC from healthy volunteers (IL-10 [3]; anti-CD3 (12.5 ng/ml) + anti-CD28 (1/3x10^5), 10^-7 M, vehicle 1042.64±162.36, p 0.382): 1132.69±213.32 (0.382) pg/mL
IL-10 production by PMBC from healthy volunteers (IL-10 [3]; anti-CD3 (12.5 ng/ml) + anti-CD28 (1/3x10^5), 10^-8 M, vehicle 1042.64±162.36, p 0.507): 1122.51±211.03 (0.507) pg/mL
IL-10 production by PMBC from healthy volunteers (IL-10 [3]; medium, 10^-6 M, vehicle 490.46±87.16, p 0.753): 559.06±112.20 (0.753) pg/mL
IL-10 production by PMBC from healthy volunteers (IL-10 [3]; medium, 10^-7 M, vehicle 490.46±87.16, p 0.701): 609.10±108.74 (0.701) pg/mL
IL-10 production by PMBC from healthy volunteers (IL-10 [3]; medium, 10^-8 M, vehicle 490.46±87.16, p 0.861): 578.66±106.20 (0.861) pg/mL
